In patent US20140121126A1, “METHODS OF DETECTING AXL AND GAS6 IN CANCER PATIENTS” (Memorial Sloan-Kettering Cancer Center, priority 2012, published 2014):
Each block holds one molecule with its values, some of them ahead of it.

What was measured:
ER4 cells = assay: Apoptosis by PARP cleavage and BIM induction in ER4 cells; format: cell-based, human; details: 24 hour exposure; AD57 1 micromolar, AD80 1 micromolar
Description: FIG. 22. Induction of apoptosis by combined EGFR and AXL inhibition. […] 24-hour drug exposure. Apoptosis measured by induction of PARP cleavage and BIM induction.

HCC827 ER1-ER5 sublines = assay: Cell viability assay (CellTiterGLO), erlotinib resistant HCC827 ER1-ER5 sublines; details: for effect of single-agent treatment on cell viability: 1 μM alone, HCC827 ER cells; for effect on sensitivity to concurrent erlotinib treatment: AXL inhibitor 1 μM plus erlotinib, each ER subline
Description: (§8) Cell growth and viability assays. Cells were seeded at a density of 3000 cells/well in 96-well plates in RPMI 1640 containing 10% FBS overnight, then treated with respective agents for an additional 3 days. Viable cell numbers were determined using CellTiterGLO or MTS assay kit, as indicated in the descriptions of the drawings, according to the manufacturer's protocols (Promega, Madison, Wis., USA). Each assay consisted of 3 replicate wells and was repeated at least twice. Data were expressed as the percentage survival of control calculated from the absorbance, corrected for background.

H3255 cells = assay: Cell viability, parental H3255 cells; format: cell-based; details: Homo sapiens, NCI-H3255, read-out: erlotinib IC50, EGFR L858R
Description: as §8

H3255 ER sublines = assay: Cell viability, erlotinib-resistant H3255 ER sublines; format: cell-based, human; details: for effect on sensitivity to concurrent erlotinib treatment: H3255 ER sublines
Description: Establishment of erlotinib-resistant subclones.
(§1) Cell growth and viability assays.

PC9 cells = assay: Cell viability (CellTiterGLO), PC9 cells; format: cell-based; details: Homo sapiens, PC-9, read-out: erlotinib IC50, EGFR exon 19-deletion mutant
Description: (§2) To address these questions, we generated cDNA constructs that encode either wild type (WT) AXL or a kinase-impaired mutant of AXL in which a key conserved lysine within the kinase domain was changed to arginine (K567R).
as §1

HCC827 xenograft tumors = test system: HCC827 xenograft tumors
Description: (§3) Tumorigenesis assays. Human lung cancer cells (as indicated) were injected subcutaneously into the flanks of CB17 SCID mice (Taconic). […] Tumor measurements were made on days indicated and expressed as described in the descriptions of the drawings. All animal experiments were performed in compliance with the guidelines of the Research Animal Resource Center of the Memorial Sloan-Kettering Cancer Center.

HCC827 ER1 tumors = assay: HCC827 ER1 xenograft tumors treated with erlotinib; format: in vivo, mice; details: ER1 tumors transduced with non-target shRNA, 12.5 mg/kg/day
Description: as §3

parental HCC827 cells [1] = assay: Western blot of signaling biomarkers, parental HCC827 cells; format: cell-based, human; details: erlotinib 100 nM
Description: (§4) Western blot analysis. Cells were serum starved overnight and whole cell lysates were prepared using 10% TCA lysis or RIPA buffer and clarified by centrifugation. Proteins were separated by 10% SDS-PAGE gel and transferred onto PVDF membranes (Invitrogen) for Western blot analysis. After primary antibody incubation overnight, washing and incubation with secondary antibodies, blots were developed with a chemiluminescence system (Pierce).

HCC827 ER1 and ER2 cells = assay: Western blot of signaling biomarkers, HCC827 ER1 and ER2 cells; format: cell-based, human; details: for erlotinib effects (decreased pEGFR, pERK, pAKT, pRelA, increased cleaved Parp) with concurrent AXL inhibitor: concurrent treatment with erlotinib, 48 h
Description: as §4

HCC827 tumors = assay: Western blot of signaling biomarkers in HCC827 xenograft tumors; format: in vivo, mice
Description: as §4, §3

HCC827ER cells = assay: Combination index (CI) analysis with erlotinib; format: cell-based, human; details: ER1 and ER4 sublines; 1:1 ratio; CI < 1 = synergism
Description: Combination index (CI) analysis. […] The fraction affected (Fa) (i.e., Fa of 0.25 is equivalent to 75% viable cells) and CI values processed using CalcuSyn software (Biosoft, Cambridge, UK). CI values of less than 1, 1, and greater than 1 were taken as synergism, additive effect, and antagonism, respectively.

HCC827 cells = assay: Cell viability assay (CellTiterGLO), parental HCC827 cells; details: 1 μM alone
Description: Cell lines and reagents. The human lung cancer cell lines were purchased from the American Type Culture Collection except for H3255, PC-9 cells were generously provided. Cells were grown in RPMI 1640 supplemented with 10% FBS and 1× Antibiotic/Antimycotic (Invitrogen) and were in the logarithmic growth phase at the initiation of all experiments. […] Drugs were dissolved in DMSO at 10 mM and stored at −20° C. The final DMSO concentration in all experiments was <0.1% in medium. All antibodies were purchased from Cell Signaling (Boston, Mass.) except the anti-AXL and anti-phospho-AXL and anti-GAS6 antibodies, which were purchased from R&D Systems (Minneapolis, Minn.).
as §8

HCC827 ER3 cells = assay: Migration and adhesion, HCC827 ER3 cells; format: cell-based, human; details: XL-880 1 μM (FIG. 4c-d)
Description: (§5) [Vuoriluoto, K. et al. Oncogene 30, 1436-1448 (2011)] […] Together, the data support a possible role for an EMT that is marked by vimentin overexpression in the development of acquired EGFR TKI resistance that is driven by AXL in this model of human EGFR mutant lung cancer.
(§6) Migration and adhesion studies. 180,000 cells were plated onto 3.5 cm cell culture dishes. At 30 minutes, the dishes were washed and cells were fixed and stained for counting. Average cell numbers of 5 random 100× fields under light microscope are presented with ±SEM. Migration: 10,000 cells in 200 μl medium without FBS were placed in the upper chamber of transwells (6.5 mm diameter, 8 μm pore size polycarbonate membrane, Corning), and the lower chamber filled with 1 ml of medium with 10% FBS supplemented with or without the indicated drug treatments. After incubation for 16 hours, non-migrating cells were removed with cotton swabs, and the cells that migrated into the lower surface of the filters were stained with crystal violet. Cells were counted under a microscope, and triplicate results are expressed as means±SEM.

parental HCC827 cells [2] = assay: Migration and adhesion, parental HCC827 cells; format: cell-based, human; details: XL-880 1 μM (FIG. 4c-d)
Description: as §5, §6

[3] = test system: HCC827 cells expressing AXL constructs; assay: Viability of HCC827 cells expressing AXL cDNA constructs; format: cell-based, human
Description: as §2, §1
(§7) AXL cDNA and overexpression studies. The AXL gene with an HA tag at the C-terminus was amplified by overlapping PCR using cDNA generated from ER3 cells and cloned into pcDNA3.1 (+) vector. Amino acid changes (K567R or L620M) were introduced using the Strategene QuickChange Mutagenesis Kit, according to the manufacturer's protocol. The accuracy of the constructs was confirmed by DNA sequencing. Cells were transfected with the AXL-expressing vectors or empty vector as a control by using FuGENE HD reagent according to the manufacturer's protocol (Roche Applied Sciences, Indianapolis, Ind., USA). Stable HCC827 subclones resistant to the selection antibiotic, 500 μg/ml G418 were generated 24 hours post-transfection. Empty-vector expressing HCC827 cells were generated as a control. AXL protein expression was detected by using anti-HA probe (Santa Cruz Biotechnology).

AXL = assay: pAXL western blot in HCC827 cells expressing AXL L620M; format: cell-based, human
Description: Cancer research 69, 8009-8016 (2009); Yun, C. H. et al. PNAS 105, 2070-2075 (2008)] (FIG. 18).
as §4, §7

[4] = ER4 cells, 0.1, 1, 10 micromolar in combination with erlotinib

Structure (SMILES): CC(C)n1nc(-c2ccc(NC(=O)Nc3cccc(C(F)(F)F)c3)cc2)c2c(N)ncnc21 [AD57]
- apoptosis (PARP cleavage and BIM induction) combined with erlotinib (ER4 cells): enhances apoptosis
- effect on sensitivity to erlotinib (HCC827 ER1-ER5 sublines; [4]): confer dose-dependent sensitivity to erlotinib

Structure (SMILES): CC(C)n1nc(-c2ccc(NC(=O)Nc3cc(C(F)(F)F)ccc3F)cc2)c2c(N)ncnc21 [AD80]
- apoptosis (PARP cleavage and BIM induction) combined with erlotinib (ER4 cells): enhances apoptosis
- effect on sensitivity to erlotinib (HCC827 ER1-ER5 sublines; [4]): confer dose-dependent sensitivity to erlotinib

Structure (SMILES): C[C@@H](Oc1cc(-c2cnn(C3CCNCC3)c2)cnc1N)c1c(Cl)ccc(F)c1Cl [Crizotinib, crizotinib]
- effect on sensitivity to erlotinib (HCC827 ER1-ER5 sublines; ER cells, at 10 μM, in combination with erlotinib): confers dose-dependent sensitivity to erlotinib

Structure (SMILES): C#Cc1cccc(Nc2ncnc3cc(OCCOC)c(OCCOC)cc23)c1 [Erlotinib, erlotinib]
- IC50 (H3255 cells): ~15 nM
- IC50 (H3255 ER sublines; Homo sapiens, NCI-H3255, read-out: erlotinib IC50, 2 isogenic erlotinib-resistant sublines of H3255 (EGFR L858R)): > 1000 nM
- IC50 (PC9 cells): ~25 nM
- Maximum Volume Reduction (% change from baseline) (HCC827 xenograft tumors; erlotinib 25 mg/kg, 10 tumors per group, average): −69 % change from baseline
- Time to Maximum Volume Reduction (weeks) (HCC827 xenograft tumors; erlotinib 25 mg/kg, median ± SEM): 5 ± 0.2 weeks
- tumor response to erlotinib treatment (HCC827 xenograft tumors; parental HCC827 tumors, 12.5 mg/kg/day): sensitive
- tumor response to erlotinib treatment (HCC827 ER1 tumors): erlotinib-resistant
- effect on pERK, pAKT, pRelA and Parp cleavage (parental HCC827 cells [1]): decreased pERK, pAKT and pRelA (a marker of NF-kB signaling) and increased Parp cleavage
- effect on pEGFR (parental HCC827 cells [1]; parental HCC827): decreased pEGFR
- effect on pEGFR (HCC827 ER1 and ER2 cells; erlotinib 100 nM, ER1 and ER2 sublines): decreased pEGFR
- effect on pEGFR, pErbB3 and pMET in tumors (HCC827 tumors; sensitive tumors at 48 h and resistant tumors at each dose, vs vehicle): decreased levels of pEGFR, pErbB3, and pMET
- effect on pAKT, pERK, pRelA and Parp cleavage in tumors (HCC827 tumors; sensitive tumors, 48 h treatment, 12.5 mg/kg/day): decreased pAKT, pERK, and pRelA and increased Parp cleavage

Structure (SMILES): S=C(NCc1ccc2c(c1)OCO2)N1CCN(c2ncnc3c2oc2ccccc23)CC1 [MP-470, amuvatinib]
- effect on sensitivity to concurrent erlotinib treatment (H3255 ER sublines): restored sensitivity to concurrent erlotinib treatment
- synergy with concurrent erlotinib treatment (combination index) (HCC827ER cells): synergistic
- erlotinib effects (decreased pEGFR, pERK, pAKT, pRelA, increased cleaved Parp) with concurrent AXL inhibitor (HCC827 ER1 and ER2 cells): observed only upon concurrent treatment
- effect of single-agent treatment on cell viability (HCC827 cells): did not significantly affect the viability
- effect of single-agent treatment on cell viability (HCC827 ER1-ER5 sublines): did not significantly affect the viability
- effect on sensitivity to concurrent erlotinib treatment (HCC827 ER1-ER5 sublines): restored sensitivity to concurrent erlotinib treatment

- change of IC50 for XL-880 ([3]; expression of AXL L620M gatekeeper mutant): significantly increased
Structure (SMILES): COc1cc2c(Oc3ccc(NC(=O)C4(C(=O)Nc5ccc(F)cc5)CC4)cc3F)ccnc2cc1OCCCN1CCOCC1 [XL-880, foretinib]
- effect on sensitivity to concurrent erlotinib treatment (H3255 ER sublines): restored sensitivity to concurrent erlotinib treatment
- effect on migration and adhesion (HCC827 ER3 cells): inhibited migration and adhesion
- effect on migration and adhesion (parental HCC827 cells [2]): had no effect
- erlotinib effects (decreased pEGFR, pERK, pAKT, pRelA, increased cleaved Parp) with concurrent AXL inhibitor (HCC827 ER1 and ER2 cells): observed only upon concurrent treatment
- ability to restore erlotinib sensitivity ([3]; XL-880 1 μM, HCC827 cells expressing AXL L620M): abrogated the ability
- effect on erlotinib resistance induced by overexpression of WT AXL ([3]; XL-880 1 μM, HCC827 cells overexpressing WT AXL): reversed
- ability to decrease pAXL (AXL): blocked the ability
- effect of single-agent treatment on cell viability (HCC827 cells): did not significantly affect the viability
- effect of single-agent treatment on cell viability (HCC827 ER1-ER5 sublines): did not significantly affect the viability
- effect on sensitivity to concurrent erlotinib treatment (HCC827 ER1-ER5 sublines): restored sensitivity to concurrent erlotinib treatment
